Source: patent US20220226269A1, “METHODS AND COMPOSITIONS FOR MODULATION OF AN INTERSPECIES GUT BACTERIAL PATHWAY FOR LEVODOPA METABOLISM” (President and Fellows of Harvard College, priority 2019, published 2022)
In brackets after ≈: the same amount, converted by molar mass. Several values for one entry are separate records, joined by “and”; a condition that tells them apart may be missing. Equal values may be shown once. Entries after “also recorded” stand apart in the source; their conditions may differ.

How the values were obtained:
human fecal microbiota = tested on: human fecal microbiota
Experimental: Fecal slurries from neurologically healthy human donors or Parkinson's patients were prepared as described in the ‘enrichment culturing’ section above. These slurries were diluted to a final volume of 300 μL in 20% glycerol and then aliquoted into individual tubes, flash-frozen in liquid nitrogen and stored at −80° C., allowing for experiments to be repeated with the same fecal sample multiple times without freeze-thawing.

[1] = Solubility limit noted in the inhibition assays; assay type: physicochemical
H. sapiens AADC = molecular target: T1, H. sapiens AADC (Homo sapiens, UniProt P20711); assay: Inhibition of L-dopa decarboxylation by purified AADC (LC-MS/MS)
T1 sequence (P20711 1-480): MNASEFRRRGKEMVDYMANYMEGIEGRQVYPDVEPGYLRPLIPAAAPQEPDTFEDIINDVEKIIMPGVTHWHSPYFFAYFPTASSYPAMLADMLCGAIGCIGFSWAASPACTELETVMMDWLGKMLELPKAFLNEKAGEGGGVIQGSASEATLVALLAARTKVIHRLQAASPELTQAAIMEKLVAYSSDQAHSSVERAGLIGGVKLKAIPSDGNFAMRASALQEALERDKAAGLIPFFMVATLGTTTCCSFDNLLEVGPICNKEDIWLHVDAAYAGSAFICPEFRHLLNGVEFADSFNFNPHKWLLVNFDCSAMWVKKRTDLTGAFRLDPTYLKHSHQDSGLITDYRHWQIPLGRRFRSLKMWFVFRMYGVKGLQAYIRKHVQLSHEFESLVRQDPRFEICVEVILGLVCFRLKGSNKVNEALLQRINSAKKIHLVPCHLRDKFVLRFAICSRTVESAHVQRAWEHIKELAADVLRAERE

E. faecalis TyrDC [2] = molecular target: T2, E. faecalis TyrDC (Enterococcus faecalis, UniProt P0DTQ4); assay: Inhibition of L-dopa decarboxylation by purified TyrDC (LC-MS/MS); details: for preferential inhibition, AADC vs TyrDC: FIG. 4 panels B and E, in vitro; for IC50: IC50, L-dopa decarboxylation by TyrDC, purified E. faecalis TyrDC, 500 μM L-dopa, pH 5.5, best-fit ± standard error, n=3
T2 sequence (P0DTQ4 1-620): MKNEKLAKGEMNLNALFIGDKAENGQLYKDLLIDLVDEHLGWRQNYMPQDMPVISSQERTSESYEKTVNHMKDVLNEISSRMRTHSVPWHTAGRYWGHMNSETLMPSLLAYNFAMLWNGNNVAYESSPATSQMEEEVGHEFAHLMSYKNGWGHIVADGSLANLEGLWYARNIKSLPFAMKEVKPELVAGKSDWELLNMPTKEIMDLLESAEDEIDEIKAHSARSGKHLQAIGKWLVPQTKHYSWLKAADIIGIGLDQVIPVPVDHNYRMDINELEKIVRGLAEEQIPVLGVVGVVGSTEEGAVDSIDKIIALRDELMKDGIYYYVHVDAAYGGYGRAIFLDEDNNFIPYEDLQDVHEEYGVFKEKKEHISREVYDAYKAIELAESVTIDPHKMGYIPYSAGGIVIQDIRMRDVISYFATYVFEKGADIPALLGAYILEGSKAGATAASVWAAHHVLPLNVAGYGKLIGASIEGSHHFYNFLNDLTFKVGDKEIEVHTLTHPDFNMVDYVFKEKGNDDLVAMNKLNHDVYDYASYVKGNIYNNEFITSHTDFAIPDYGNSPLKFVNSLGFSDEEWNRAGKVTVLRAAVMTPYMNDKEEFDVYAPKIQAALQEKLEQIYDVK

[3] = tested on: co-cultures of E. faecalis and E. lenta; assay: L-dopa metabolism by co-cultures of E. faecalis and E. lenta with AFMT; details: 125 μM AFMT, 1 mM d3-phenyl-L-dopa, 48 hours
Experimental: E. faecalis MMH594 WT or tyrDC mutant or E. lenta A2 or E. lenta DSM2243 were grown anaerobically for 48 hours from single colonies in BHI medium at 37° C. These starter cultures were normalized to an OD600=0.1 by dilution into fresh BHI medium. […] Cultures were grown for 48 hours at 37° C. and harvested by centrifugation.

HeLa cells = assay: MTS/MTT assay for HeLa cell viability in the presence of AFMT; assay type: cell-based; details: two days treatment
Experimental: HeLa cells were seeded in 100 μL growth medium [(DMEM medium supplemented with 10% FBS (2 mL) and 1× Antibiotic-Antimycotic (100× stock, Invitrogen))] and incubated at 37° C. in 5% CO2 incubator for 1 day. Wells containing growth medium only were used as background controls. Cells were treated with various concentrations of AFMT in quadruplicate. Two days post treatment, 20 μL of CellTiter 96® AQueous One Solution Reagent (Promega) was added to each well. The plates were incubated at 37° C. in 5% CO2 incubator for 2 hours followed by absorbance measurement at 490 nm. To calculate relative cell viability, the readings for each compound concentration were subtracted from the background controls and normalized to vehicle controls.
HeLa cells were seeded into 96-well plates at a density of 1×10^5 cells per well in 100 μL of growth medium [(DMEM medium supplemented with 10% FBS (2 mL) and 1× Antibiotic-Antimycotic (100× stock, Invitrogen))] and incubated at 37° C. in a 5% CO2 incubator for 1 day. Wells containing growth medium only were used as background controls. Cells were treated with various concentrations of AFMT in quadruplicate. […] To calculate relative cell viability, the readings for each compound concentration were subtracted from the background controls and normalized to vehicle controls

E. faecalis MMH594 cells = assay: L-dopa decarboxylation in anaerobic E. faecalis cultures with inhibitor
TyrDC = molecular target: T3, TyrDC (Enterococcus faecalis, UniProt P0DTQ4); assay: Identification of a PLP-inhibitor adduct upon incubation of enzymes with AFMT; assay type: biochemical; details: TyrDC or AADC incubated with AFMT for 1 hour
T3 sequence (P0DTQ4 1-620): T2 sequence (P0DTQ4 1-620)
Experimental: The same buffers as described above were used for each enzyme. 10 μM AADC or TyrDC was incubated with 200 μM PLP and 50 μM AFMT for one hour at room temperature. The reactions were quenched by boiling at 95° C. for 15 minutes. This mix was diluted 1:20 in LC-MS grade methanol and spun down to pellet precipitates. The supernatant was analyzed by LC-MS using Method E described above. The predicted adduct was identified based on the work described in.

[4] = Pharmacokinetic experiment in gnotobiotic mice colonized with E. faecalis MMH594; assay type: in vivo; details: L-dopa+carbidopa+AFMT
E. faecalis TyrDC [5] = molecular target: T2, E. faecalis TyrDC; assay: Michaelis-Menten kinetics of E. faecalis TyrDC; details: for Vmax / kcat: substrate of TyrDC, best-fit ± standard error, n=3
Experimental: (§1) The enzyme reaction was then initiated by dissolving the preincubated enzyme-PLP mix 1:10 with substrate dissolved in 0.2 M sodium acetate buffer, pH 5.5. […] Aliquots of the enzyme reaction were quenched by diluting 10-fold into ice cold methanol at 20, 40, and 60 seconds after initiation. The quenched reaction was centrifuged to pellet precipitates and 5 μL of the supernatant was analyzed by LC-MS/MS using Method B described above. Rates were calculated as the substrate produced from 20 to 60 seconds and were fit to a standard Michaelis-Menten kinetics curve in Graphpad prism (version 7). All experiments were done in triplicate and were repeated at least twice. Reactions were performed at room temperature.

[6] = cited from earlier work
E. lenta A2 cell lysates = assay: E. lenta A2 lysate assays with tungstate; assay type: biochemical, Eggerthella lenta; details: 500 μM dopamine, 12 hours, room temperature
Experimental: E. lenta A2 was grown either without or with 500 μM dopamine in BHI medium containing 1% (w/v) arginine and 10 mM formate. Cultures were spun down at OD600=0.500 and cell pellets were washed twice with anaerobic, sterile PBS to remove dopamine and any m-tyramine that had accumulated in the culture. Pellets were lysed anaerobically in 50 mM Tris pH 8 followed by addition of 500 μM dopamine (DA) to lysates. Lysates were left at room temperature for 12 hours and were analyzed for m-tyramine production by LC-MS/MS. Peak heights show the relative intensity of each mass and all chromatograms are shown on the same scale.
10 mL turbid 48-hour starter cultures of E. lenta A2 in BHI medium were diluted 1:100 into 20 mL BHI medium containing 1% arginine and 10 mM formate with or without 500 μM dopamine. Cells were pelleted by centrifugation when cultures reached OD600=0.500. Cell pellets were washed twice with PBS and were then re-suspended in 800 μL 50 mM Tris pH 8 containing 4 mg/mL […] protease inhibitor cocktail, followed by anaerobic sonication to lyse the cells. Dopamine was added to crude lysates at a final concentration of 500 μM and the reactions were left for 12 hours at room temperature under anaerobic conditions. […] Supernatant were analyzed by LC-MS/MS to measure dopamine and m-tyramine production using Method A described above. […]

E. lenta A2 [7] = assay: Anaerobic growth of E. lenta A2 in the presence of tungstate; assay type: cell-based, Eggerthella lenta; details: BHI medium, varying concentrations of tungstate
E. lenta A2 [8] = assay: Effect of tungstate on dopamine dehydroxylation in cultures of E. lenta A2; assay type: cell-based, Eggerthella lenta; details: 48 hours, 0.5 mM dopamine
[9] = substrate: N[C@@H](Cc1ccc(O)c(O)c1)C(=O)O; assay: purified protein, by the assay type; details: other: substrate of TyrDC, pH 5.5
[10] = substrate: N[C@@H](Cc1ccc(O)cc1)C(=O)O; assay: purified protein, by the assay type; details: other: substrate of TyrDC; best-fit ± standard error, n=3; pH 5.5
Experimental: as §1

[11] = read-out: inhibition of AADC at solubility limit

Question: With `N[C@@](CF)(Cc1ccc(O)cc1)C(=O)O` [AFMT] as the molecule, how does the “L-dopa decarboxylation in gut microbiota samples” value (human fecal microbiota; Parkinson's disease patients and neurologically healthy control subjects, 1 mM d3-phenyl-L-dopa, 72 hours) read?
Answer: completely inhibited

Question: And the solubility ([1]; AADC inhibition assay mixture, AADC inhibition assay)?
Answer: 650 µM (≈ 139 µg/mL)

Question: What about the inhibition at 650 µM (H. sapiens AADC; [11]) of the same molecule?
Answer: ~20%

Question: What about the inhibition at 700 µM (H. sapiens AADC; [11]) of the same molecule?
Answer: 20%

Question: And the “preferential inhibition, AADC vs TyrDC” value (E. faecalis TyrDC [2])?
Answer: preferentially inhibits TyrDC over AADC

Question: What about the IC50 (E. faecalis TyrDC [2]) of the same molecule?
Answer: 4.7 µM and 4.71 µM

Question: And the “L-dopa decarboxylation by co-cultures of E. faecalis and E. lenta” value [3]?
Answer: reduced

Question: What about the “toxicity to eukaryotic cells” value (HeLa cells) of the same molecule?
Answer: non-toxic

Question: What about the “fold outperforming carbidopa in E. faecalis cultures” value (E. faecalis MMH594 cells; AFMT vs carbidopa) of the same molecule?
Answer: 1000 fold

Question: What about the EC50 (E. faecalis MMH594 cells; Enterococcus faecalis, MMH594CELLS, read-out: EC50, L-dopa decarboxylation in E. faecalis cultures, E. faecalis MMH594 cells, 0.5 mM L-dopa, anaerobic) of the same molecule?
Answer: 1.4 µM

Question: What about the “covalent PLP adduct formation” value (TyrDC) of the same molecule?
Answer: formed a covalent PLP adduct only in the presence of TyrDC

Question: And the “serum L-dopa relative to vehicle controls” value [4]?
Answer: higher

Question: For `N[C@@H](Cc1ccc(O)c(O)c1)C(=O)O` [L-dopa], which Vmax (E. faecalis TyrDC [5]) is on record?
Answer: 5.553 ± 0.165 ^ μM/s

Question: What about the kcat (E. faecalis TyrDC [5]) of the same molecule?
Answer: 55.53 ± 2.98 ^ 1/s

Question: What about the “L-dopa reaching the brain” value ([6]; extensive pre-systemic metabolism in the gut) of the same molecule?
Answer: 1-5%

Question: What does the source list for `N[C@@H](Cc1ccc(O)cc1)C(=O)O` [Tyrosine, L-tyrosine]?
Answer: fold higher catalytic efficiency compared to L-dopa (E. faecalis TyrDC [5]; TyrDC): 5 fold; Vmax (E. faecalis TyrDC [5]): 6.363 ± 0.102 µM/s; kcat (E. faecalis TyrDC [5]): 63.63 ± 1.02 s⁻¹

Question: What does the source list for `C[C@@](Cc1ccc(O)c(O)c1)(NN)C(=O)O` [carbidopa]?
Answer: kinetics of L-dopa degradation in stool samples (human fecal microbiota; 2 mM carbidopa, 1 mM d3-phenyl-L-dopa, 72 hours): did not alter; endpoint m-tyramine production in stool samples (human fecal microbiota; 2 mM carbidopa, Parkinson's patients and neurologically healthy controls): did not alter; solubility ([1]; E. faecalis cultures, plasma or biological fluid): 2000 µM (≈ 452 µg/mL); IC50 (H. sapiens AADC): 0.21 µM; fold less active toward TyrDC relative to AADC (E. faecalis TyrDC [2]; E. faecalis TyrDC vs H. sapiens AADC): 200 fold; preferential inhibition, AADC vs TyrDC (E. faecalis TyrDC [2]): preferentially inhibits human amino acid decarboxylase (AADC) over TyrDC; IC50 (E. faecalis TyrDC [2]): 52 µM; inhibition at 2000 µM (E. faecalis MMH594 cells; Enterococcus faecalis, MMH594CELLS, read-out: inhibition of L-dopa decarboxylation by E. faecalis cultures, at solubility limit of 2 mM): ~50%; inhibition of L-dopa decarboxylation by E. faecalis cultures (E. faecalis MMH594 cells; at solubility limit of 2 mM): 50% inhibition at; m-tyramine production in patients ([6]; carbidopa administration, previous findings): does not impact

Question: With `[Na+].[Na+].[O]=[W](=[O])([O-])[O-]` [tungstate, Sodium tungstate] as the molecule, how does the “dopamine dehydroxylation by E. lenta A2 cell lysates” value (E. lenta A2 cell lysates) read?
Answer: had no effect; also recorded: no dose-dependent effect

Question: And the “growth of E. lenta A2” value (E. lenta A2 [7])?
Answer: without affecting growth; also recorded: no obvious dose-dependent growth defect

Question: What about the “dopamine dehydroxylation by E. lenta A2 cultures” value (E. lenta A2 [8]) of the same molecule?
Answer: inhibits

B1: E. faecalis TyrDC (Enterococcus faecalis EnGen0310 = MMH594) (protein)
chain: T2 sequence (P0DTQ4 1-620)
Question: With B1 as the molecule, how does the Km ([9]; best-fit ± standard error, n=3) read?
Answer: 1475 ± 79.28 ^ μM

Question: What about the Km [9] of the same molecule?
Answer: 1.5 mM

Question: What about the Km [10] of the same molecule?
Answer: 314.9 ± 15.5 µM
